Like-named read-outs stand apart in the source and are kept apart here.
Experiment: Phase I study CXR1002-001: plasma pharmacokinetics (LC-MS/MS)
Format: in vivo, human
Conditions: human, plasma, oral, person, plasma, read-out: Concentration; for concentration at 192 h: 192 hr (Day 9); for concentration at 336 h: 336 hr (Day 15); for concentration at 360 h: 360 hr (Day 16); for concentration at 504 h: 504 hr (Day 22); for concentration at 528 h: 528 hr (Day 23); for concentration at 672 h: 672 hr (Day 29); for concentration at 696 h: 696 hr (Day 30); for concentration at 24 h: 24 hr (Day 2); for concentration at 168 h: 168 hr (Day 8)
Text: PK samples, PD (fasting) samples, blood glucose, and blood triglyceride samples, were taken over a 6-week period.
Dose limiting toxicity (DLT) will be based on the toxicity assessments over the first 3-week period of the repeat dosing schedule. PK samples (single blood sample) were taken on the following basis: • Every 6 weeks during the repeat dosing phase • If dosing is interrupted or stopped, samples will be taken at intervals according to patient convenience • PK sampling for safety evaluation may take place at any time, as clinically indicated
Plasma samples were collected after the single 50 mg dose at the following timepoints: Pre-dose, and then 0.25, 0.5, 0.75, 1, 1.5, 2, 3, 4, 6, 24, 48, and 72 hours after administration and then once weekly at weeks 2, 3, 4, 5, and 6 (days 8, 15, 22, 29, and 36). For patients treated with the weekly repeat dose, plasma samples were collected at the following timepoints: Pre-dose and then 2, 3, 4 and 24 hours after administration for a total of 6 weeks. Thereafter a single sample was collected every 6 weeks for monitoring of exposure during long term treatment. Plasma samples were processed at site and stored at −80° C. prior to batch shipment to the analytical laboratory.

## O=C(O)C(F)(F)C(F)(F)C(F)(F)C(F)(F)C(F)(F)C(F)(F)C(F)(F)F [CXR1002]
950 mg, Patient 029, 950 mg
  concentration at 172 h: 556 µM
  concentration at 192 h: 606 µM
  concentration at 336 h: 439 µM
  concentration at 338 h: 704 µM
  concentration at 339 h: 777 µM
  concentration at 340 h: 674 µM
  concentration at 360 h: 896 µM
  concentration at 504 h: 400 µM
  concentration at 506 h: 897 µM
  concentration at 507 h: 741 µM
  concentration at 508 h: 701 µM
  concentration at 528 h: 781 µM
  concentration at 672 h: 492 µM
  concentration at 674 h: 841 µM
  concentration at 675 h: 972 µM
  concentration at 676 h: 812 µM
  concentration at 696 h: 949 µM
950 mg, Patient 029, 950 mg, 840 hr (Day 36)
  concentration at 840 h: 777 µM
950 mg, Patient 029, 950 mg, 842 hr
  concentration at 842 h: 793 µM
950 mg, Patient 029, 950 mg, 864 hr (Day 37)
  concentration at 864 h: 1040 µM
950 mg, Patient 030, 950 mg
  concentration at 3 h: 219 µM
  concentration at 4 h: 333 µM
  concentration at 24 h: 214 µM
950 mg, Patient 031, 950 mg
  concentration at 2 h: 267 µM
  concentration at 3 h: 338 µM
  concentration at 4 h: 336 µM
  concentration at 24 h: 348 µM
  concentration at 168 h: 237 µM
  concentration at 170 h: 513 µM
  concentration at 171 h: 463 µM
  concentration at 172 h: 427 µM
  concentration at 192 h: 516 µM
  concentration at 336 h: 554 µM
  concentration at 338 h: 668 µM
  concentration at 339 h: 715 µM
  concentration at 340 h: 697 µM
  concentration at 360 h: 800 µM
  concentration at 504 h: 755 µM
  concentration at 506 h: 794 µM
  concentration at 507 h: 861 µM
  concentration at 508 h: 998 µM
  concentration at 528 h: 958 µM
  concentration at 672 h: 813 µM
  concentration at 674 h: 921 µM
  concentration at 675 h: 882 µM
  concentration at 676 h: 938 µM
  concentration at 696 h: 1030 µM
950 mg, Patient 032, 950 mg
  concentration at 2 h: 292 µM
  concentration at 3 h: 191 µM
  concentration at 4 h: 231 µM
  concentration at 24 h: 161 µM
  concentration at 168 h: 192 µM
  concentration at 170 h: 439 µM
  concentration at 171 h: 478 µM
  concentration at 172 h: 517 µM
  concentration at 192 h: 495 µM
1000 mg, Patient 040, 1000 mg
  concentration at 2 h: 188 µM
  concentration at 3 h: 168 µM

From patent US20130029928A1 (priority 2010, published 2013)
